Earlier results as cited in publication PMC7142633, “Impact of B-Ring Substitution and Acylation with Hydroxy Cinnamic Acids on the Inhibition of Porcine α-Amylase by Anthocyanin-3-Glycosides” (Foods, 2020).

Biological target: porcine pancreatic α-amylase
Set-up: method as in doi:10.1016/j.jff.2015.11.042
Conditions: cited from earlier work

Q: With COc1cc(-c2[o+]c3cc(O)cc(O)c3cc2O[C@@H]2O[C@H](CO)[C@@H](O)[C@H](O)[C@H]2O)ccc1O [Peo-glc, peonidin-3-glucoside] as the compound, how does the IC50 read?
A: The IC50 was 75 ± 7 µM.

Q: What about the inhibition type of the same compound?
A: Its inhibition type is “competitive inhibition type”.
